Data on two compounds can be found in patent US6518041B1, “Hormone response element that binds an androgen and progesterone receptor” (Schering Aktiengesellschaft, priority 1998, dated 2003).

Assay [1] has as its target T1, androgen receptor (Homo sapiens, UniProt P10275).
T1 construct: expressed in transfected cells; host or cells: PC-3 cells stably transformed with an androgen receptor expression vector (PC-3/AR)
T1 sequence (P10275 1-920): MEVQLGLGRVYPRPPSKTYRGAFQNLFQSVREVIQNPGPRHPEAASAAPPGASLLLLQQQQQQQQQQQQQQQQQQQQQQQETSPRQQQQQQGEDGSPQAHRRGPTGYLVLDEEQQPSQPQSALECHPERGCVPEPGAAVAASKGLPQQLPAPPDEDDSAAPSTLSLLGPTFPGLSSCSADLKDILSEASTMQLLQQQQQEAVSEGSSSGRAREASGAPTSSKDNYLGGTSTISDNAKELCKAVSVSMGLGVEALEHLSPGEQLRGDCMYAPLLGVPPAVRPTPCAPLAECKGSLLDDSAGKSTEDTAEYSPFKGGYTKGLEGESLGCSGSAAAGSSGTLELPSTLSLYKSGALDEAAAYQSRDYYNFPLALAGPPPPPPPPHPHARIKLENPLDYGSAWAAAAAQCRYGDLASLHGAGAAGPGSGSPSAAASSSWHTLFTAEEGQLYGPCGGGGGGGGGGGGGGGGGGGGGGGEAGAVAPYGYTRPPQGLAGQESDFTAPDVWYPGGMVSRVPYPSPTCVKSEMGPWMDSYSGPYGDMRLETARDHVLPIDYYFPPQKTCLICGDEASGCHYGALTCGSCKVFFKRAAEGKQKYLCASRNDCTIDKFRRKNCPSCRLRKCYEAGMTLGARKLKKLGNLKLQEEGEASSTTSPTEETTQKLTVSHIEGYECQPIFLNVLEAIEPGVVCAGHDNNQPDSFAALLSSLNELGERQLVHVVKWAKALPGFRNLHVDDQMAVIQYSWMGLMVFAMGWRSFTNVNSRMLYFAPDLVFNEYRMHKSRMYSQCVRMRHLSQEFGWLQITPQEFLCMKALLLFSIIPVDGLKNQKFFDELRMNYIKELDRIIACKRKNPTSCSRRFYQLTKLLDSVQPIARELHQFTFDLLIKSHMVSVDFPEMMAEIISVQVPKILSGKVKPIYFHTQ
Put plainly: ARE17 luciferase reporter test system in PC-3/AR cells. The format is cell-based. The text has this:
Preferred is the use of the luciferase reporter gene and of PC-3 cells that have been transformed in advance in a stable manner with an expression vector for the androgen receptor (PC-3/AR cells) or in a transient parallel manner. In addition, the use of the TK minimal promoter is preferred. […] A progestin is a synthetic progesterone analog.
(§1) Test systems were compared that contained either an HRE according to the invention that corresponds to Seq. ID No. 1 (ARE17) or the consensus-HRE with the sequence (SEQ ID NO: 5) 5′-[…]-3′ (ARE). All other components were respectively the same. Copies of the ARE17 were introduced upstream from the TK minimal promoter and the luciferase gene in the pGL3-basic vector (FIG. 1). PC-3/AR cells, which already express the androgen receptor in a stable manner, were saturated in RPMI1640/10% cFS/L-glutamine for 18-24 hours and then transformed for five hours with 100 ng of reporter plasmid and the Fu-gene transfection reagent (Boehringer Mannheim). Then, the medium was replaced by RPM1640/5% cFCS/L-glutamine, and the activity of the reporter gene measured 42 hours later.
(§2) Four copies of the elements were introduced upstream from the TK minimal promoter and the luciferase gene in the pGL3-basic vector (FIG. 1) and transformed in the PC-3/AR-cells, which already express the androgen receptor in a stable manner, as described above. The stimulation was carried out with the synthetic androgen R1881 (10^−9M or 10^−7M final concentration).
(Reporter assays use an easily measured gene product as a stand-in for the process of interest.)

Assay [2] deals with T1, androgen receptor. Put plainly: consensus-HRE (ARE) luciferase reporter test system in PC-3/AR cells. It counts as cell-based.
Description: as §1, §2

`C[C@]1(O)CC[C@H]2[C@@H]3CCC4=CC(=O)CCC4=C3C=C[C@@]21C` [R1881]: the “induction of the luciferase activity” value on androgen receptor [1] (2 copies of ARE17, TK minimal promoter, PC-3/AR cells, androgen receptor expression vector) is 10.5 fold. The “induction of the luciferase activity compared between ARE17, consensus-HRE and IDR17” value on androgen receptor [1] (4 copies of ARE17, R1881 10^-9 M or 10^-7 M) is on record as “strongest induction”; on androgen receptor [2] (4 copies of consensus-HRE, R1881 10^-9 M or 10^-7 M), “weakest stimulation”. In addition, on androgen receptor [1] (4 copies of ARE17, TK minimal promoter, PC-3/AR cells), the “increase of the luciferase activity” value is on record as 46 fold. Also, the “difference in stimulation between the two R1881 concentrations” value at androgen receptor [1] (4 copies, 10^-9 M versus 10^-7 M final concentration) is “No decisive difference”. Also, the “induction of the luciferase activity (in words)” value on androgen receptor [1] (ARE17, R1881 10^-7 M, measured 42 hours later) is listed as “very strong induction”.
With `CC(C)(O)C(=O)Nc1ccc([N+](=O)[O-])c(C(F)(F)F)c1` [hydroxyflutamide], the “stimulation of ARE17 in the absence of an androgen” value on androgen receptor [1] (4 copies, no androgen) is recorded as “stimulated neither”. At androgen receptor [2] (4 copies, no androgen), the “stimulation of the consensus-HRE in the absence of an androgen” value is on record as “stimulated neither”.
